Assay [1] concerns the target T1, AMCase (Homo sapiens, UniProt Q9BZP6).
T1 construct: the catalytic domains of OfChtI from Ostrinia furnacalis (O. furnacalis), human HsCht and acidic mammalian chitinase (AMCase); made in house; host or cells: Pichia pastoris GS115 (secreted)
Briefly: Inhibitory activity determination with MU-β-(GlcNAc)2, Dixon plots. The assay is classed as biochemical. The text has this:
(§1) The recombinant GH18 chitinases for inhibitory activity evaluation including OfChi-h and the catalytic domains of OfChtI from Ostrinia furnacalis (O. furnacalis), human HsCht and acidic mammalian chitinase (AMCase) were extracellularly expressed in Pichia pastoris GS115. SmChiA from Serratia marcescens was expressed in Escherichia coli BL21 (DE3). All the proteins were purified from the culture medium by immobilized metal affinity chromatography (IMAC) as described previously ([Chen et al., 2014]). The purities of the target proteins were analyzed by SDS-PAGE followed by Coomassie Brilliant Blue R-250 staining.
(§2) 20 nM enzyme was incubated with 10 μL substrate [0.2 μM MU-β-(GlcNAc)2] in 20 mM sodium phosphate buffer (pH 6.0 for OfChi-h, OfChtI, HsCht and SmChiA, and pH 5.2 for AMCase) containing 2 μL inhibitor at 30°C. The reaction in the absence of inhibitor and substrate was used as the control. After 30 min, an equal volume of 0.5 M Na2CO3 was added to the reaction mixture to stop the reaction, and the fluorescence of the released MU was quantitated using an Infinite® 200 PRO microplate reader (Tecan, Swiss) with excitation and emission wavelengths of 360 and 450 nm, respectively. Experiments were performed in triplicate. For the determination of the mode of inhibition and the inhibition constant (K i) value, the reaction mixtures contained three MU-β-(GlcNAc)2 concentrations (5, 10 and 20 μM for OfChi-h, AMCase and SmChiA; 5, 7.5 and 10 μM for HsCht; and 1, 2 and 4 μM for OfChtI). The inhibitor concentration varied according to the inhibitory activity. The Ki values and types of inhibition were determined by linear fitting of data in Dixon plots.

The target in assay [2] is T2, OfChtI (Ostrinia furnacalis, UniProt Q2V6H4). The description is as above. The assay is classed as biochemical.
T2 sequence (Q2V6H4 19-407): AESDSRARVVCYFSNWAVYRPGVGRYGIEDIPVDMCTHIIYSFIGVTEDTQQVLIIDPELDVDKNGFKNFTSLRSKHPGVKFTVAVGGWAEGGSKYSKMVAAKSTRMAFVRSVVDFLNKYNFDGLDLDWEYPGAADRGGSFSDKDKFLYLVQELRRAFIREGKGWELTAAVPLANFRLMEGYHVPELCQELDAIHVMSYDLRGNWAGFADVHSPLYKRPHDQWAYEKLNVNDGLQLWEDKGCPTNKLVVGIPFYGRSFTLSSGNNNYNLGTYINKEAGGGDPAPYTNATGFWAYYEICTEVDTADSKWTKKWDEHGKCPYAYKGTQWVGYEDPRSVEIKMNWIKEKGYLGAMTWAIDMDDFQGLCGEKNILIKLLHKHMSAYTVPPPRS
Source text: as §1, §2

For assay [3], the target named is T3, SmChiA (Serratia marcescens, UniProt P07254).
T3 construct: made in house; host or cells: Escherichia coli BL21 (DE3)
T3 sequence (P07254 24-563): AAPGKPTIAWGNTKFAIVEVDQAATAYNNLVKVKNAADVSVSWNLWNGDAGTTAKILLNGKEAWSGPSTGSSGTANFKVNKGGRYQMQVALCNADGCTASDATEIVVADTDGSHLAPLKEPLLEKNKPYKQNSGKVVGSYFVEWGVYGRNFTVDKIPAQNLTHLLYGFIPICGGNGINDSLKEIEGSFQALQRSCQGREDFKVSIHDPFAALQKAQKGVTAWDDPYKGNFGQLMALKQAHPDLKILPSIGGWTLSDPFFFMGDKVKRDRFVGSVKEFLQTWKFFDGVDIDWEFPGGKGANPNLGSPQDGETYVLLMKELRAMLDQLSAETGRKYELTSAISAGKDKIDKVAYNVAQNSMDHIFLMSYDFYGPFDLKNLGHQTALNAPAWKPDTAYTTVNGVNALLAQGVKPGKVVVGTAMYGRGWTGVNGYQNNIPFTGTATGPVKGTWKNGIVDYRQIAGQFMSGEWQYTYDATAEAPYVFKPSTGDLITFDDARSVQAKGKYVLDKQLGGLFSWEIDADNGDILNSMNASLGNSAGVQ
The description is as above. In kind it is biochemical.
Source text: as §1, §2

The target in assay [4] is T4, OfChi-h (Ostrinia furnacalis, UniProt Q4AE59).
T4 construct: made in house; host or cells: Pichia pastoris GS115 (secreted)
T4 sequence (Q4AE59 18-553): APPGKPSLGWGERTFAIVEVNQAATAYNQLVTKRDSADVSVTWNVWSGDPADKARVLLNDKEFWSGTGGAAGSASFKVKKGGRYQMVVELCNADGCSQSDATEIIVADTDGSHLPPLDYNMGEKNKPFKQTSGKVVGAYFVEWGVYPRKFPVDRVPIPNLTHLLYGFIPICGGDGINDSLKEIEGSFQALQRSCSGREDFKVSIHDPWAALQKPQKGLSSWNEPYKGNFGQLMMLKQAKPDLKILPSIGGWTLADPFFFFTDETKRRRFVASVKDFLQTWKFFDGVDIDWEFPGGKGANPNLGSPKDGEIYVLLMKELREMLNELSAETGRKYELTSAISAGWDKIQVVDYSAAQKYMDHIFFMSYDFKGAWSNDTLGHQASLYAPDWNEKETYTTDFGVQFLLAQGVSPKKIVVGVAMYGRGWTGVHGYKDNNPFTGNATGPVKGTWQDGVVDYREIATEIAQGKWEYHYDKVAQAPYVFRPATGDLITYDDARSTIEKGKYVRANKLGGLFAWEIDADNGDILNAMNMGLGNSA
Described as above. In kind it is biochemical.
Source text: as §1, §2

For assay [5], the target named is T5, HsCht (Homo sapiens, UniProt Q13231).
T5 construct: the catalytic domains of OfChtI from Ostrinia furnacalis (O. furnacalis), human HsCht and acidic mammalian chitinase (AMCase); made in house; host or cells: Pichia pastoris GS115 (secreted)
T5 sequence (Q13231 22-388 limits assumed): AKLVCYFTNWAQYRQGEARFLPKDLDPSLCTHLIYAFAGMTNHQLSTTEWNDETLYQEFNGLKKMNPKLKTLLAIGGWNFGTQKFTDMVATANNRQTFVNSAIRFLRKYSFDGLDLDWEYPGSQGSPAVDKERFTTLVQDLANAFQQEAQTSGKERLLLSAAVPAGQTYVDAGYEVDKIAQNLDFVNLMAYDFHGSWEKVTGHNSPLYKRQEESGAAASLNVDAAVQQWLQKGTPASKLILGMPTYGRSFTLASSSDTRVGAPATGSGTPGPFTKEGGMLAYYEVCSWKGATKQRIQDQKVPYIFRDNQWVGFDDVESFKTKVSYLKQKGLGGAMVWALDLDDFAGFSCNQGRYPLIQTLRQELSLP
The assay is described as above. In kind it is biochemical.
Source text: as §1, §2

The target in assay [6] is T1, AMCase. The experiment in a line: Tryptophan fluorescence quenching spectroscopy. In kind it is binding.
Source text: as §1
(§3) All tryptophan fluorescence spectroscopy experiments were performed using the Infinite® 200 PRO microplate reader (Tecan, Swiss). The excitation wavelength was fixed to 285 nm and emission spectra were collected between 320 and 450 nm with a slit width of 2 nm. The temperature was maintained at 30°C. Fluorescence quenching experiments were performed in a 100 μL mixture containing 1 μM protein in the 20 mM sodium phosphate buffer (pH 6.0 for OfChi-h, OfChtI, HsCht and SmChiA, and pH 5.2 for AMCase), and by the successive addition of 1 μL compounds stock solution. The inhibitor concentration varied according to the enzyme activity. The dissociation constant (K d) value was analyzed by nonlinear regression with the “One Site-Specific Binding” model using GraphPad Prism 7.04.

The target in assay [7] is T2, OfChtI. The experiment in a line: Tryptophan fluorescence quenching spectroscopy. In kind it is binding.
Source text: as §1, §3

For assay [8], the target named is T3, SmChiA. The experiment in a line: Tryptophan fluorescence quenching spectroscopy. In kind it is binding.
Source text: as §1, §3

Assay [9] has as its target T4, OfChi-h. Briefly: Tryptophan fluorescence quenching spectroscopy. The assay is classed as binding.
Source text: as §1, §3

In assay [10] the target is T5, HsCht. Briefly: Tryptophan fluorescence quenching spectroscopy. The assay is classed as binding.
Source text: as §1, §3

T1 sequence (Q9BZP6 22-390 limits assumed): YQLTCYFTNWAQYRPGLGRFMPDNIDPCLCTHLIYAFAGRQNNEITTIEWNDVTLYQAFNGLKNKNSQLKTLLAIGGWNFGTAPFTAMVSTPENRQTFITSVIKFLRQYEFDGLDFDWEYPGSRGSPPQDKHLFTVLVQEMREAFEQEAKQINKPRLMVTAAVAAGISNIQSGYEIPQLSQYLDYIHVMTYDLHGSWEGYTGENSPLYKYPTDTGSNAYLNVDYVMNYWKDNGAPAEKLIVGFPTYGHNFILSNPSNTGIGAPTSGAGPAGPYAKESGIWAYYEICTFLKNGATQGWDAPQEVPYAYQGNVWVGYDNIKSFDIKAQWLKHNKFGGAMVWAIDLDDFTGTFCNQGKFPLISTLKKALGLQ

Turning to `C[C@H]1O[C@H](O[C@H]2[C@H](O)[C@@H](O)[C@@H](O)[C@H](O)[C@@H]2O)[C@@H](N)C[C@@H]1NC(=N)C(=O)O` [kasugamycin, Kasugamycin], the Ki on AMCase [1] is 6.27 µM; at OfChtI [2] it was 470 nM; on SmChiA [3], 29 µM; at OfChi-h [4], 2700 nM; on HsCht [5] (K i in the buffer with 1.0 M NaCl, buffer containing 1.0 M NaCl), 1620 nM; at HsCht [5] (K i, 20 mM sodium phosphate buffer pH 6.0, 30°C), 250 nM. Moreover, the mode of inhibition result on AMCase [1] (AMCase, inhibition kinetics) is “competitive”; on OfChtI [2] (OfChtI, inhibition kinetics), “competitive”; on SmChiA [3] (SmChiA, inhibition kinetics) it was “competitive”; on OfChi-h [4] (OfChi-h, inhibition kinetics) it was “competitive”; on HsCht [5] (inhibition kinetics), “competitive”. Also, at OfChtI [2] (at 10 μM, preliminary screening of a natural products library, read-out: inhibition against OfChtI), the inhibition at 10 µM was determined as 92.5%. The “increase of K i in buffer containing 1.0 M NaCl” value at HsCht [5] (1.0 M NaCl vs. standard buffer) worked out at 6 fold. The Kd amounted to 15.8 µM on AMCase [6]; 3.96 µM at OfChtI [7]; 34.1 µM at SmChiA [8]; 11.5 µM at OfChi-h [9]; 920 nM at HsCht [10].

In general, Ki refers to the dissociation constant of the complex between target and ligand, obtained from inhibition or displacement. Low readings indicate a stronger hold on the target, high ones a looser hold on the target. In general, inhibition refers to the drop in the measured response relative to a control, in per cent. Broadly, the Kd is the equilibrium constant for the complex coming apart. A lower Kd goes with a tighter complex.

The values above are taken from publication PMC8058351, “Discovery of Kasugamycin as a Potent Inhibitor of Glycoside Hydrolase Family 18 Chitinases” (Frontiers in Molecular Biosciences, 2021).
